Data reported in patent US12428406B2 (PMV Pharmaceuticals, Inc., priority 2019, dated 2025).

target: T1, p53 Y220C (Homo sapiens, UniProt P04637, Y220C); test: In vitro DNA binding activity assay (HTRF / TR-FRET): stabilization of p53 Y220C and increase of its DNA binding activity; assay type: biochemical; conditions: recombinant His-tagged p53 Y220C DNA binding domain (aa 94-312), biotin-labeled consensus DNA, incubated at 27° C. or 29° C. for 60 min
T1 construct: The recombinant protein was a truncation mutant containing only amino acids 94-312 of p53; made in house; host or cells: E. coli
T1 sequence (P04637 94-312, change not shown): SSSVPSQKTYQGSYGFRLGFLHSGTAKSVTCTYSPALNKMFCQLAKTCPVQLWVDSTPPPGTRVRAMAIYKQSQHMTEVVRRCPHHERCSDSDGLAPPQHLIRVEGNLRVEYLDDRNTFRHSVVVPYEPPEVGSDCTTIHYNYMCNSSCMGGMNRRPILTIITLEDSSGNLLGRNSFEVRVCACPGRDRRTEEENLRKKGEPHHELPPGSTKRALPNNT
Experimental: The ability of a compound of the invention to stabilize p53 Y220C and increase the DNA binding activity of p53 Y220C was measured by a homogeneous time-resolved fluorescence (HTRF) assay. Recombinant His-tagged p53 Y220C used in the HTRF assay was expressed in the bacterium E. coli.
The binding of the recombinant His-tagged p53 Y220C protein and the biotin-labeled consensus DNA was measured using fluorescence resonance energy transfer (FRET). For the FRET assay, the binding between the p53 mutant and the DNA sequence was measured by detecting the fluorescence of the interaction between an anti-His antibody conjugated to allophycocyanin (APC) and streptavidin conjugated to europium to detect the biotin-labeled DNA.
The test compounds were prepared as 4.5 mM stock solutions in dimethyl sulfoxide (DMSO). The compounds of the disclosure were used to test the stabilization of p53 Y220C and increase in DNA binding activity of p53 Y220C. The stock solutions were then serially diluted 3-fold in DMSO, and 1.2 μL of the diluted solutions was added to each well of a 384-well polypropylene black plate.
The test and control samples were spun at 1200 rpm for 1 minute and incubated at room temperature for 15 minutes. […] The plates were spun at 1200 rpm for 1 minute and incubated at room temperature for 20 minutes. The assay signals were monitored by reading excitation at 340 nm, and emission fluorescence at 615 nm and 665 nm on a plate reader.
The percentage of activation of protein DNA binding in the presence of a compound of the invention compared to the absence of the compound was denoted by a SC150 value, which indicated the concentration of the compound required to increase the DNA binding activity by 50%. The SC150 values were calculated using either Prism™ or ActivityBase™.

SMILES | SC150 (concentration of the compound required to increase the DNA binding activity by 50%)
CCOc1cc(S(C)(=O)=O)ccc1NCC#Cc1cc2c(NC3CCN(CC(O)COC)CC3)cccc2n1CC(F)(F)F (stereo not shown) [Compound 631A, 1-{4-[(2-{3-[(2-ethoxy-4-methanesulfonylphenyl)amino]prop-1-yn-1-yl}-1-(2,2,2-trifluoroethyl)-1H-indol-4-yl)amino]piperidin-1-yl}-3-methoxypropan-2-ol] | + (+ = 0 μM ≤ SC150 < 0.05 μM)
COCCN(CCOC)[C@H]1CC[C@H](Nc2cccc3c2cc(C#CCNc2ccc(S(N)(=O)=O)cc2OC)n3CC(F)(F)F)CC1 [Compound 61A, 3-methoxy-4-{[3-(4-{[(1R,4R)-4-[bis(2-methoxyethyl)amino]cyclo-hexyl]amino}-1-(2,2,2-trifluoroethyl)-1H-indol-2-yl)prop-2-yn-1-yl]amino}benzene-1-sulfonamide] | + (+ = 0 μM ≤ SC150 < 0.05 μM)
COc1cc(C(N)=O)ccc1NCC#Cc1cc2c(N[C@@H]3CCNC[C@@H]3F)cccc2n1CC(F)(F)F [Compound 849A, 4-{[3-(4-{[(3S,4R)-3-fluoropiperidin-4-yl]amino}-1-(2,2,2-trifluoroethyl)-1H-indol-2-yl)prop-2-yn-1-yl]amino}-3-methoxybenzamide] | + (+ = 0 μM ≤ SC150 < 0.05 μM)
CCC(=O)OCC(CN1CCC(Nc2cccc3c2cc(C#CCNc2ccc(C(=O)NC)cc2OC)n3CC(F)(F)F)CC1)OC(=O)CC (stereo not shown) [Compound 656A, 1-(4-{[2-(3-{[2-methoxy-4-(methylcarbamoyl)phenyl]amino}prop-1-yn-1-yl)-1-(2,2,2-trifluoroethyl)-1H-indol-4-yl]amino}piperidin-1-yl)-3-(propanoyloxy)propan-2-yl propanoate] | + (+ = 0 μM ≤ SC150 < 0.05 μM)
COCC(O)CN1CCC(Nc2cccc3c2cc(C#CCNc2ccc(S(C)(=O)=O)cc2C)n3CC(F)(F)F)CC1 (stereo not shown) [Compound 703A, 1-{4-[(2-{3-[(4-methanesulfonyl-2-methylphenyl)amino]prop-1-yn-1-yl}-1-(2,2,2-trifluoroethyl)-1H-indol-4-yl)amino]piperidin-1-yl}-3-methoxypropan-2-ol] | + (+ = 0 μM ≤ SC150 < 0.05 μM)
COc1cc(S(C)(=O)=O)ccc1NCC#Cc1cc2c(N[C@H]3CCCC[C@H]3N)cccc2n1CC(F)(F)F (racemic) [Compound 29A, rac-(1R,2S)-N^1-(2-{3-[(4-methanesulfonyl-2-methoxyphenyl)amino]prop-1-yn-1-yl}-1-(2,2,2-trifluoroethyl)-1H-indol-4-yl)cyclo-hexane-1,2-diamine] | + (+ = 0 μM ≤ SC150 < 0.05 μM)
CNC(=O)c1ccc(NCC#Cc2cc3c(N[C@H]4CC[C@H](N5CCC(OC)CC5)CC4)cccc3n2CC(F)(F)F)c(OC)c1 [Compound 352A, 3-methoxy-N-methyl-4-{[3-(4-{[(1R,4R)-4-(4-methoxypiperidin-1-yl)cyclohexyl]amino}-1-(2,2,2-trifluoroethyl)-1H-indol-2-yl)prop-2-yn-1-yl]amino}benzamide] | + (+ = 0 μM ≤ SC150 < 0.05 μM)

More lines, now with the values ahead:

SC150 (concentration of the compound required to increase the DNA binding activity by 50%) | SMILES
+ (+ = 0 μM ≤ SC150 < 0.05 μM) | COc1cc(S(=O)(=O)N(C)C)ccc1NCC#Cc1cc2c(NC3CCNCC3)cccc2n1CC(F)(F)F [Compound 460A]
+ (+ = 0 μM ≤ SC150 < 0.05 μM) | COCC(CNC(=O)c1ccc(NCC#Cc2cc3c(N[C@@H]4CCN(C)C[C@@H]4F)cccc3n2CC(F)(F)F)c(OC)c1)OC(=O)C(C)C (stereo partly drawn) [Compound 1055A, 1-[(4-{[3-(4-{[(3S,4R)-3-fluoro-1-methylpiperidin-4-yl]amino}-1-(2,2,2-trifluoroethyl)-1H-indol-2-yl)prop-2-yn-1-yl]amino}-3-methoxyphenyl)formamido]-3-methoxypropan-2-yl 2-methylpropanoate]
+ (+ = 0 μM ≤ SC150 < 0.05 μM) | COc1cc(S(=O)(=O)NC(C)=O)ccc1NCC#Cc1cc2c(N[C@@H]3CCN(C)C[C@@H]3F)cccc2n1CC(F)(F)F [Compound 837A, N-(4-{[3-(4-{[(3S,4R)-3-fluoro-1-methylpiperidin-4-yl]amino}-1-(2,2,2-trifluoroethyl)-1H-indol-2-yl)prop-2-yn-1-yl]amino}-3-methoxybenzenesulfonyl)acetamide]
+ (+ = 0 μM ≤ SC150 < 0.05 μM) | COCCN(C)[C@H]1CC[C@H](Nc2cccc3c2cc(C#CCNc2ccc(S(N)(=O)=O)cc2OC)n3CC(F)(F)F)CC1 [Compound 160A, 3-methoxy-4-{[3-(4-{[(1R,4R)-4-[(2-methoxyethyl)(methyl)amino]cyclohexyl]amino}-1-(2,2,2-trifluoroethyl)-1H-indol-2-yl)prop-2-yn-1-yl]amino}benzene-1-sulfonamide]
+ (+ = 0 μM ≤ SC150 < 0.05 μM) | CNC(=O)c1ccc(NCC#Cc2cc3c(NC4CCN(CC(O)CO)CC4)cccc3n2CC(F)(F)F)c(OC)c1 (stereo not shown) [Compound 658A, 4-{[3-(4-{[1-(2,3-dihydroxypropyl)piperidin-4-yl]amino}-1-(2,2,2-trifluoroethyl)-1H-indol-2-yl)prop-2-yn-1-yl]amino}-3-methoxy-N-methylbenzamide]
+ (+ = 0 μM ≤ SC150 < 0.05 μM) | COc1cc(S(=O)(=O)Nc2ccon2)ccc1NCC#Cc1cc2c(N[C@H]3CC[C@H](N(C)C)CC3)cccc2n1CC(F)(F)F [Compound 48A, 3-methoxy-N-(1,2-oxazol-3-yl)-4-{[3-(4-{[(1R,4R)-4-(dimethylamino)cyclo-hexyl]amino}-l-(2,2,2-trifluoroethyl)-1H-indol-2-yl)prop-2-yn-1-yl]amino}benzene-1-sulfonamide]
+ (+ = 0 μM ≤ SC150 < 0.05 μM) | COc1cc(S(N)(=O)=O)ccc1NCC#Cc1cc2c(NC3CCC4(CC3)OCCO4)cccc2n1CC(F)(F)F [Compound 63A, 4-({3-[4-({1,4-dioxaspiro[4.5]decan-8-yl}amino)-1-(2,2,2-trifluoroethyl)-1H-indol-2-yl]prop-2-yn-1-yl}amino)-3-methoxy-benzene-1-sulfonamide]
+ (+ = 0 μM ≤ SC150 < 0.05 μM) | COCC(O)CN1CCC(Nc2cccc3c2cc(C#CCOc2ccc(S(C)(=O)=O)cc2N)n3CC(F)(F)F)CC1 (stereo not shown) [Compound 646A, 1-[4-((2-[3-(2-amino-4-methanesulfonylphenoxy)prop-1-yn-1-yl]-1-(2,2,2-trifluoroethyl)-1H-indol-4-yl}amino)piperidin-1-yl]-3-methoxypropan-2-ol]
+ (+ = 0 μM ≤ SC150 < 0.05 μM) | CCN1CC[C@H](Nc2cccc3c2cc(C#CCNc2ccc(C(=O)O)cc2OC)n3CC(F)(F)F)[C@H](F)C1 [Compound 828A, 4-{[3-(4-{[(3R,4S)-1-ethyl-3-fluoropiperidin-4-yl]amino}-1-(2,2,2-trifluoroethyl)-1H-indol-2-yl)prop-2-yn-1-yl]amino}-3-methoxybenzoic acid]
